These results are taken from PMC7587356, “High-Throughput Screening for Inhibitors of the SARS-CoV-2 Protease Using a FRET-Biosensor” (Molecules, 2020).

Counter-ions that a name gives are not always drawn. Like-named read-outs stand apart in the source and are kept apart here.

The target in the experiment is SARS-CoV-2 3CLpro (Severe acute respiratory syndrome coronavirus 2, UniProt P0DTD1). As to the kind of experiment: biochemical. The experiment is classed as biochemical. Also noted: Replicate_1 / Replicate_2 / mean / mean (LOPAC_screen_w_protease): unit not given here. The note with it: for inhibition at 5 µM: 4 h.
Setting [1] is: sheet LOPAC_screen_w_protease, LOPAC1280 at 5 µM, mean of two replicates, read-out: mean.
[2] abbreviates: sheet LOPAC_screen_w_protease, LOPAC1280 at 5 µM, replicate 1, read-out: Replicate_1.
Where [3] appears, read: sheet LOPAC_screen_w_protease, LOPAC1280 at 5 µM, replicate 2, read-out: Replicate_2.
Where [4] appears, read: sheet LOPAC_screen_w_protease, primary screen with protease, compound at 5 µM, mean of two replicates, read-out: mean.
Setting [5] is: sheet LOPAC_screen_w_protease, primary screen with protease, compound at 5 µM, replicate 1, read-out: Replicate_1.
Setting [6] is: sheet LOPAC_screen_w_protease, primary screen with protease, compound at 5 µM, replicate 2, read-out: Replicate_2.
Where [7] appears, read: LOPAC1280 primary screen with protease, 5 µM compound, replicate 1, read-out: Replicate_1 (LOPAC_screen_w_protease).
The mark [8] stands for this setting: LOPAC1280 primary screen with protease, 5 µM compound, replicate 2, read-out: Replicate_2 (LOPAC_screen_w_protease).
[9] abbreviates: LOPAC1280 primary screen with protease, 5 µM compound, mean of two replicates.
The mark [10] stands for this setting: sheet LOPAC_screen_w_protease, primary screen with protease, mean of two replicates.
[11] abbreviates: sheet LOPAC_screen_w_protease, primary screen with protease, replicate 1.
The mark [12] stands for this setting: sheet LOPAC_screen_w_protease, primary screen with protease, replicate 2.
The mark [13] stands for this setting: LOPAC1280 primary screen with protease, 5 µM compound, replicate 1.
The mark [14] stands for this setting: LOPAC1280 primary screen with protease, 5 µM compound, replicate 2.
The mark [15] stands for this setting: sheet LOPAC_screen_w_protease, LOPAC1280 primary screen with protease, 5 µM compound, mean of the two replicates.
Where [16] appears, read: sheet LOPAC_screen_w_protease, LOPAC1280 primary screen with protease, 5 µM compound, replicate 1.
Setting [17] is: sheet LOPAC_screen_w_protease, LOPAC1280 primary screen with protease, 5 µM compound, replicate 2.
Setting [18] is: sheet LOPAC_screen_w_protease, LOPAC1280 at 5 µM, mean of two replicates.
Setting [19] is: sheet LOPAC_screen_w_protease, LOPAC1280 at 5 µM, replicate 1.
Where [20] appears, read: sheet LOPAC_screen_w_protease, LOPAC1280 at 5 µM, replicate 2.
The mark [21] stands for this setting: sheet LOPAC_screen_w_protease, LOPAC1280 primary screen at 5 µM, with protease, mean of the two replicates.
The mark [22] stands for this setting: sheet LOPAC_screen_w_protease, LOPAC1280 primary screen at 5 µM, with protease, replicate 1.
Setting [23] is: sheet LOPAC_screen_w_protease, LOPAC1280 primary screen at 5 µM, with protease, replicate 2.

On to `COc1cccc2c1[C@@H]1CN(CCCCn3c(=O)[nH]c4c(sc5ncc(-c6ccccc6)nc54)c3=O)C[C@@H]1CO2` [Fiduxosin hydrochloride], for which the inhibition at 5 µM runs as follows: (sheet LOPAC_screen_w_protease, primary screen of LOPAC1280 at 5 µM with protease, mean of the two replicates, read-out: mean) 3.27%; (sheet LOPAC_screen_w_protease, primary screen of LOPAC1280 at 5 µM with protease, replicate 1, read-out: Replicate_1) 3.54%; (sheet LOPAC_screen_w_protease, primary screen of LOPAC1280 at 5 µM with protease, replicate 2, read-out: Replicate_2) 3.01%.
Consider `O=C(NCC1CCCCN1)c1cc(OCC(F)(F)F)ccc1OCC(F)(F)F` (stereo not drawn) [Flecainide acetate], for which the inhibition at 5 µM is, setting by setting: under setting [1], 1.01%; under setting [2], 2.84%; under setting [3], -0.814%.
In the case of `CCOC(=O)c1ncn2c1CN(C)C(=O)c1cc(F)ccc1-2` [Flumazenil], the inhibition at 5 µM runs as follows: under setting [4], 3.1%; under setting [5], 5.09%; under setting [6], 1.11%.
For `Fc1ccc(C(c2ccc(F)cc2)N2CCN(C/C=C/c3ccccc3)CC2)cc1` [Flunarizine dihydrochloride], in that order: 2.85%, 3.4% and 2.29%.
Regarding `CNCCC(Oc1ccc(C(F)(F)F)cc1)c1ccccc1` (stereo not drawn) [Fluoxetine hydrochloride], the inhibition at 5 µM is, setting by setting: (sheet LOPAC_screen_w_protease, LOPAC1280 primary screen at 5 µM, with protease, mean of the two replicates, read-out: mean) 0.474%; (sheet LOPAC_screen_w_protease, LOPAC1280 primary screen at 5 µM, with protease, replicate 1, read-out: Replicate_1) 2.07%; (sheet LOPAC_screen_w_protease, LOPAC1280 primary screen at 5 µM, with protease, replicate 2, read-out: Replicate_2) -1.12%.
For the molecule `OCCN1CCN(CCCN2c3ccccc3Sc3ccc(C(F)(F)F)cc32)CC1` [Fluphenazine dihydrochloride], the inhibition at 5 µM is 4.18% under setting [7] and -0.136% under setting [8]. For the same molecule, the “mean (LOPAC_screen_w_protease)” value (LOPAC1280 primary screen with protease, 5 µM compound, mean of the two replicates) worked out at 2.023.
Take `CCOC(=O)Nc1ccc(NCc2ccc(F)cc2)nc1N` [Flupirtine maleate]: the inhibition at 5 µM was determined as 10.9% (sheet LOPAC_screen_w_protease, primary screen at 5 µM, mean of two replicates, read-out: mean (LOPAC screen with protease)); 11.1% (sheet LOPAC_screen_w_protease, primary screen at 5 µM, replicate 1, read-out: Replicate_1 (LOPAC screen with protease)); 10.6% (sheet LOPAC_screen_w_protease, primary screen at 5 µM, replicate 2, read-out: Replicate_2 (LOPAC screen with protease)).
For `CC(C)C(=O)Nc1ccc([N+](=O)[O-])c(C(F)(F)F)c1` [Flutamide], the inhibition at 5 µM was 0.293% (sheet LOPAC_screen_w_protease, primary screen with protease, 5 µM, mean of two replicates, read-out: mean); 2.71% (sheet LOPAC_screen_w_protease, primary screen with protease, 5 µM, replicate 1, read-out: Replicate_1); -2.13% (sheet LOPAC_screen_w_protease, primary screen with protease, 5 µM, replicate 2, read-out: Replicate_2).
For `COc1ccc(CC(C)NCC(O)c2ccc(O)c(NC=O)c2)cc1` (stereo not drawn) [Formoterol], the inhibition at 5 µM under setting [7] worked out at 1.5% and the inhibition at 5 µM under setting [8] turned out to be 1.19%. The “mean (LOPAC_screen_w_protease)” value under setting [9] turned out to be 1.3452.
In the case of `C=C[C@@]1(C)CC(=O)[C@]2(O)[C@@]3(C)[C@@H](O)CCC(C)(C)[C@@H]3[C@H](O)[C@H](OC(C)=O)[C@@]2(C)O1` [Forskolin], the inhibition at 5 µM by setting is: under setting [1], 1.29%; under setting [2], 1.85%; under setting [3], 0.734%.
Regarding `Cc1nc2c([nH]1)c(=O)n(C)c(=O)n2Cc1ccco1` [Furafylline], the inhibition at 5 µM runs as follows: under setting [7], 3.1%; under setting [8], -0.41%. Moreover, the “mean (LOPAC_screen_w_protease)” value under setting [9] is given as 1.344.
On to `O=C([O-])c1cc2cc(Cc3cccnc3)ccc2o1.[Na+]` [Furegrelate sodium], for which the mean (sheet LOPAC_screen_w_protease, primary screen of LOPAC1280 at 5 µM with protease, mean of the two replicates) worked out at 4.074. The same molecule returned a Replicate_1 (sheet LOPAC_screen_w_protease, primary screen of LOPAC1280 at 5 µM with protease, replicate 1) of 5.241. In addition, the Replicate_2 (sheet LOPAC_screen_w_protease, primary screen of LOPAC1280 at 5 µM with protease, replicate 2) came to 2.907.
Turning to `CCCCc1ccc(C(=O)O)nc1` [Fusaric acid], the inhibition at 5 µM (sheet LOPAC_screen_w_protease, primary screen with protease, mean of two replicates, read-out: mean) was 2.51%; the inhibition at 5 µM (sheet LOPAC_screen_w_protease, primary screen with protease, replicate 1, read-out: Replicate_1) stood at 3.23%; the inhibition at 5 µM (sheet LOPAC_screen_w_protease, primary screen with protease, replicate 2, read-out: Replicate_2) worked out at 1.8%.
The molecule `CC(=O)O[C@H]1C[C@@]2(C)[C@@H](C[C@@H](O)[C@H]3[C@@]4(C)CC[C@@H](O)[C@@H](C)[C@@H]4CC[C@@]32C)/C1=C(\CCC=C(C)C)C(=O)[O-].[Na+]` [Fusidic acid sodium] displayed a mean under setting [10] of 2.25. In addition, under setting [11], the Replicate_1 turned out to be 4.338. Under setting [12], the Replicate_2 was 0.1614.
Regarding `NCCCC(=O)O` [GABA], under setting [9], the “mean (LOPAC_screen_w_protease)” value amounted to 1.638. For the same molecule, under setting [13], the “Replicate_1 (LOPAC_screen_w_protease)” value is 1.648. Further, under setting [14], the “Replicate_2 (LOPAC_screen_w_protease)” value is listed as 1.628.
In turn, `Cl.Cl.Fc1ccc(C(OCCN2CCN(CCCc3ccccc3)CC2)c2ccc(F)cc2)cc1` [GBR-12909 dihydrochloride] gave a mean under setting [15] of 4.322. Moreover, under setting [16], the Replicate_1 was found to be 4.518. Moreover, the Replicate_2 under setting [17] was 4.126.
`Cl.Cl.c1ccc(CCCN2CCN(CCOC(c3ccccc3)c3ccccc3)CC2)cc1` [GBR-12935 dihydrochloride] displayed a mean under setting [18] of 0.9925. The molecule also came in with a Replicate_1 under setting [19] of 2.277. The Replicate_2 under setting [20] is reported as -0.2925.
Molecule `COc1ccc(CNC(=O)/C=C/c2ccc3[nH]cc(CCN(C)C)c3c2)cc1` [GR 4661] had a mean under setting [21] of 0.4567. The Replicate_1 under setting [22] is recorded as 1.411. This molecule returned a Replicate_2 under setting [23] of -0.4976.
Turning to `Cn1cc(C(=O)OCC2CCN(CCNS(C)(=O)=O)CC2)c2ccccc21` [GR 113808], the mean under setting [18] is recorded as 1.128. In addition, the Replicate_1 under setting [19] is on record as 1.417. Besides, the Replicate_2 under setting [20] worked out at 0.838.
`COc1[nH]c2ccc(F)cc2c1C(=O)OCC1CCN(CCNS(C)(=O)=O)CC1.NS(=O)(=O)O` [GR 125487 sulfamate salt] showed a mean under setting [21] of 0.6171. Besides, the Replicate_1 under setting [22] is 2.002. The molecule further displayed a Replicate_2 under setting [23] of -0.7681.
For `COc1ccc(NC(=O)c2ccc(-c3ccc(-c4noc(C)n4)cc3C)cc2)cc1N1CCN(C)CC1.Cl` [GR 127935 hydrochloride], in that order: 0.6456, 0.5978 and 0.6934.
As to `COC(=O)N1CCN(C(=O)Cc2ccc(Cl)c(Cl)c2)C(CN2CCCC2)C1.O=C(O)/C=C/C(=O)O` (stereo not drawn) [GR-89696 fumarate], the mean under setting [10] is listed as 2.523. This molecule came in with a Replicate_1 under setting [11] of 2.9956. Also, the Replicate_2 under setting [12] was 2.05.
On to `CN(CCOc1ccc(C[C@H](Nc2ccccc2C(=O)c2ccccc2)C(=O)O)cc1)c1ccccn1` [GW1929], for which, under setting [18], the mean turned out to be 1.294. This molecule also showed a Replicate_1 under setting [19] of 1.2073. Also, under setting [20], the Replicate_2 is 1.38.
For the molecule `CN(C)c1cc2c(Nc3ccc4c(cnn4Cc4ccccc4)c3)ncnc2cn1` [GW2974], under setting [9], the “mean (LOPAC_screen_w_protease)” value amounted to 1.489. Moreover, the “Replicate_1 (LOPAC_screen_w_protease)” value under setting [13] was 2.805. Under setting [14], the “Replicate_2 (LOPAC_screen_w_protease)” value turned out to be 0.1722.
For `O=C1Nc2ccc(I)cc2/C1=C/c1cc(Br)c(O)c(Br)c1` [GW5074], the mean under setting [15] worked out at 5.786. Also, the Replicate_1 under setting [16] is listed as 6.4599. This molecule also displayed a Replicate_2 under setting [17] of 5.112.
`CC(C)(Sc1ccc(CCN(CCCCC2CCCCC2)C(=O)NC2CCCCC2)cc1)C(=O)O` [GW7647] gave a mean (sheet LOPAC_screen_w_protease, primary screen with protease, 5 µM, mean of two replicates) of -0.2447. The molecule also gave a Replicate_1 (sheet LOPAC_screen_w_protease, primary screen with protease, 5 µM, replicate 1) of -0.1471. The Replicate_2 (sheet LOPAC_screen_w_protease, primary screen with protease, 5 µM, replicate 2) is given as -0.3423.
Consider `O=C(Nc1ccccc1)c1cc([N+](=O)[O-])ccc1Cl` [GW9662], for which, under setting [9], the “mean (LOPAC_screen_w_protease)” value was determined as 1.573. For the same molecule, the “Replicate_1 (LOPAC_screen_w_protease)” value under setting [13] is 2.013. Moreover, the “Replicate_2 (LOPAC_screen_w_protease)” value under setting [14] is recorded as 1.1319.
In turn, `CC1=NN=C(c2ccc(N)cc2)c2cc3c(cc2C1)OCO3.Cl` [GYKI 52466 hydrochloride] registered a mean under setting [21] of 0.5948. The molecule also gave a Replicate_1 under setting [22] of 3.75. This molecule also showed a Replicate_2 under setting [23] of -2.56.
